The values below come from patent US8956594B2, “Fluoride-calcium compositions, dental products, and methods for providing dental fluoride” (ADA Foundation, priority 2005, dated 2015).

The structures appear in SMILES notation.

For the data set the following is noted: used in the absence of phosphate, in some trials. The text has this: The anion may be any suitable stabilizing anion, by which is contemplated to be an anion the inclusion of which results in a composition that is stable for storage and transport as against precipitation of calcium fluoride, the composition not being stable (or as stable) for storage and transport as against precipitation of calcium fluoride in the absence of the anion. In some embodiments, the anion contains the O—PO—O moiety. […] Plural anions may be employed in a single composition.

In the case of `O=P(O)(O)OP(=O)(O)O` [pyrophosphate], the “effectiveness as stabilizing anion” value is on record as “not to be effective”.
